Results reported in patent US8008288B2, “Anti-inflammatory A-aminocyclolactam compounds” (Cambridge Enterprise Limited, priority 2004, dated 2011).

Key:
[1] = system: MCP-1 induced leukocyte migration (THP-1 cells); assay: Inhibition of chemokine (MCP-1) induced leukocyte migration in vitro, transwell assay; type: cell-based, human
Method: In principle, this assay consists of two chambers separated by a porous membrane. The chemoattractant is placed in the lower compartment and the cells are placed in the upper compartment. After incubation for a period at 37° C. the cells move towards the chemoattractant, and the number of cells in the lower compartment is proportional to the chemoattractant activity (relative to a series of controls).
This assay can be used with a range of different leukocyte populations. For example, freshly prepared human peripheral blood leukocytes may used. Alternatively, leukocyte subsets may be prepared, including polymorphonuclear cells or lymphocytes or monocytes using methods well known to those skilled in the art such as density gradient centrifugation or magnetic bead separations. Alternatively; immortal cell lines which have been extensively validated as models of human peripheral blood leukocytes may be used, including, but not limited to THP-1 cells as a model of monocytes or Jurkat cells as model of naïve T cells.
The THP-1 cell line (European Cell culture Collection) were used as the leukocyte cell population.
The following procedure is used for testing the invention compounds for MCP-1 induced leukocyte migration:
First, the cell suspension to be placed in the upper compartment is prepared. […]

[2] = type: in vitro ADME, human
Description: As an approach to identifying such stable analogs, various derivatives of (S)-3-(undec-10-enoyl)-aminoglutarimide have been tested for their stability in serum.

[3] = cited from earlier work

O=C1NCCCC[C@@H]1NC(=O)C12CC3CC(CC(C3)C1)C2 [(S)-3-(adamantane-1-carbonylamino)azepin-2-one]
potency in vitro as broad-spectrum chemokine inhibitor (BSCI) ([1]; in vitro): sub-nanomolar

C=CCCCCCCCCC(=O)[C@@H]1CCCNC1=O [(S)-3-(undec-10-enoyl)-tetrahydropyridin-2-one]
potency compared with the parental molecule ([1]; parental molecule (S)-3-(undec-10-enoyl)-aminoglutarimide): considerably reduced potency
stability in human serum ([2]; human, 7 days): at least 7 days

C=CCCCCCCCCC(=O)N[C@H]1CCC(=O)NC1=O [NR58,4, (S)-3-(undec-10-enoyl)-aminoglutarimide]
enzymatic ring opening of the aminoglutarimide ring in serum [2]: susceptible to enzymatic ring opening in serum

c(DCys-DGln-DIle-DTrp-DLys-DGln-DLys-DPro-DAsp-DLeu-DCys)-NH2 [NR58-3.14.3]
half-life period of clearance from blood plasma ([3]; after intravenous injection): less than 30 minutes
oral bioavailability ([3]; in vivo, po): not orally bioavailable
